Assay [1] has as its target Glucagon receptor (Rattus norvegicus) (UniProt P30082). Description: Relative binding potency expressed as receptor binding IC50 for glucagon by receptor binding IC50 for compound.
Assay [2] has the same target. Nature of the assay: Percent stimulation of cAMP production over basal. The class given is functional. Details: concentration or dose not given beside the values. On the technique in general: Cyclic AMP is a second messenger, typically raised through Gs and lowered through Gi signalling.

A value given as a limit tells only on which side of the number the result lay.

Chain of Glucagon receptor (Rattus norvegicus) (P30082 whole entry): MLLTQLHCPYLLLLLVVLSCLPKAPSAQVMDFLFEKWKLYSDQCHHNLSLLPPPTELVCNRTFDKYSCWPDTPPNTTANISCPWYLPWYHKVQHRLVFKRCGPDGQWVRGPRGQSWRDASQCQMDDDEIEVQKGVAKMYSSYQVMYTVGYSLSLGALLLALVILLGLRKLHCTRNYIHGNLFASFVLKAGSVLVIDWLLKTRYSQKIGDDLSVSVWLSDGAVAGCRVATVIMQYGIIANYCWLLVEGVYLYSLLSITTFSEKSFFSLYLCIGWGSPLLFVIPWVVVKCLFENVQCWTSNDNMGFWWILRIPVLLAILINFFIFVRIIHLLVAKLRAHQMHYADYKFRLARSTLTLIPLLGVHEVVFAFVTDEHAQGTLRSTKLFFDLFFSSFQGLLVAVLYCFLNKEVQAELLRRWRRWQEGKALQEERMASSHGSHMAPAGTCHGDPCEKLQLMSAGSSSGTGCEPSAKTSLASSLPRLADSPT

In the case of `CSCC[C@@H](NC(=O)[C@@H](CC(C)C)NC(=O)[C@@H](Cc1c[nH]c2ccccc12)NC(=O)[C@@H](CCC(N)=O)NC(=O)[C@H](NC(=O)[C@@H](Cc1ccccc1)NC(=O)[C@@H](CC(=O)O)NC(=O)[C@@H](CCC(N)=O)NC(=O)[C@@H](C)NC(=O)[C@@H](CCCN=C(N)N)NC(=O)[C@@H](CCCN=C(N)N)NC(=O)[C@@H](CO)NC(=O)[C@@H](CC(=O)O)NC(=O)[C@@H](CC(C)C)NC(=O)[C@@H](Cc1ccc(O)cc1)NC(=O)[C@@H](CCCCN)NC(=O)[C@@H](CO)NC(=O)[C@@H](Cc1ccc(O)cc1)NC(=O)[C@@H](CCC(=O)O)NC(=O)[C@@H](CO)NC(=O)[C@H](NC(=O)[C@H](NC(=O)CNC(=O)[C@@H](CCC(N)=O)NC(=O)[C@H](N)CO)[C@H](C)O)[C@H](C)O)C(C)C)C(=O)N[C@H](CC(N)=O)C(=O)N[C@@H](C(N)=O)[C@H](C)O`, the figures for the Activity in assay [1] and in assay [2] were 3.1% and 0%, respectively.

In the case of `CSCC[C@@H](NC(=O)[C@@H](CC(C)C)NC(=O)[C@@H](Cc1c[nH]c2ccccc12)NC(=O)[C@@H](CCC(N)=O)NC(=O)[C@H](NC(=O)[C@@H](Cc1ccccc1)NC(=O)[C@@H](CC(=O)O)NC(=O)[C@@H](CCC(N)=O)NC(=O)[C@@H](C)NC(=O)[C@@H](CCCN=C(N)N)NC(=O)[C@@H](CCCN=C(N)N)NC(=O)[C@@H](CO)NC(=O)[C@@H](CC(=O)O)NC(=O)[C@@H](CC(C)C)NC(=O)[C@@H](Cc1ccc(O)cc1)NC(=O)[C@@H](CCCCN)NC(=O)[C@@H](CO)NC(=O)[C@@H](Cc1ccc(O)cc1)NC(=O)[C@@H](CC(=O)O)NC(=O)[C@@H](CO)NC(=O)[C@H](NC(=O)[C@H](NC(=O)CNC(=O)[C@@H](CCC(N)=O)NC(=O)[C@H](N)CO)[C@H](C)O)[C@H](C)O)C(C)C)C(=O)N[C@H](CC(N)=O)C(=O)N[C@@H](C(N)=O)[C@H](C)O`, the Activity in assay [1] is 1.2%; in assay [2] it was 0%.

For the molecule `CSCC[C@@H](NC(=O)[C@@H](CC(C)C)NC(=O)[C@@H](Cc1c[nH]c2ccccc12)NC(=O)[C@@H](CCC(N)=O)NC(=O)[C@H](NC(=O)[C@@H](Cc1ccccc1)NC(=O)[C@@H](CC(=O)O)NC(=O)[C@@H](CCC(N)=O)NC(=O)[C@@H](C)NC(=O)[C@@H](CCCN=C(N)N)NC(=O)[C@@H](CCCN=C(N)N)NC(=O)[C@@H](CO)NC(=O)[C@@H](CC(=O)O)NC(=O)[C@@H](CC(C)C)NC(=O)[C@@H](Cc1ccc(O)cc1)NC(=O)[C@@H](CCCCN)NC(=O)[C@@H](CO)NC(=O)[C@@H](Cc1ccc(O)cc1)NC(=O)[C@@H](CC(=O)O)NC(=O)[C@@H](CO)NC(=O)[C@H](NC(=O)[C@H](NC(=O)CNC(=O)[C@@H](CCC(N)=O)NC(=O)[C@@H](CO)NC(=O)[C@H](N)Cc1c[nH]cn1)[C@H](C)O)[C@H](C)O)C(C)C)C(=O)N[C@H](CC(N)=O)C(=O)N[C@@H](C(N)=O)[C@H](C)O`, the results for the Activity in assay [1] and in assay [2] were 0.3% and 0%, respectively.

Consider `CSCC[C@@H](NC(=O)[C@@H](CC(C)C)NC(=O)[C@@H](Cc1c[nH]c2ccccc12)NC(=O)[C@@H](CCC(N)=O)NC(=O)[C@H](NC(=O)[C@@H](Cc1ccccc1)NC(=O)[C@@H](CC(=O)O)NC(=O)[C@@H](CCC(N)=O)NC(=O)[C@@H](C)NC(=O)[C@@H](CCCN=C(N)N)NC(=O)[C@@H](CCCN=C(N)N)NC(=O)[C@@H](CO)NC(=O)[C@@H](CC(=O)O)NC(=O)[C@@H](CC(C)C)NC(=O)[C@@H](Cc1ccc(O)cc1)NC(=O)[C@@H](CCCCN)NC(=O)[C@@H](CO)NC(=O)[C@@H](Cc1ccc(O)cc1)NC(=O)[C@@H](CCC(=O)O)NC(=O)[C@@H](CO)NC(=O)[C@H](NC(=O)[C@@H](C)NC(=O)[C@H](NC(=O)CNC(=O)[C@@H](CCC(N)=O)NC(=O)[C@H](N)CO)[C@H](C)O)[C@H](C)O)C(C)C)C(=O)N[C@H](CC(N)=O)C(=O)N[C@@H](C(N)=O)[C@H](C)O`, for which the Activity in assay [1] stood at 1.2%; in assay [2], 0%.

With `CSCC[C@@H](NC(=O)[C@@H](CC(C)C)NC(=O)[C@@H](Cc1c[nH]c2ccccc12)NC(=O)[C@@H](CCC(N)=O)NC(=O)[C@H](NC(=O)[C@@H](Cc1ccccc1)NC(=O)[C@@H](CC(=O)O)NC(=O)[C@@H](CCC(N)=O)NC(=O)[C@@H](C)NC(=O)[C@@H](CCCN=C(N)N)NC(=O)[C@@H](CCCN=C(N)N)NC(=O)[C@@H](CO)NC(=O)[C@@H](CC(=O)O)NC(=O)[C@@H](CC(C)C)NC(=O)[C@@H](Cc1ccc(O)cc1)NC(=O)[C@@H](CCCCN)NC(=O)[C@@H](CO)NC(=O)[C@@H](Cc1ccc(O)cc1)NC(=O)[C@@H](CCC(=O)O)NC(=O)[C@@H](CO)NC(=O)[C@H](NC(=O)[C@H](NC(=O)CNC(=O)[C@@H](CCC(N)=O)NC(=O)[C@H](N)CO)[C@H](C)O)[C@H](C)O)C(C)C)C(=O)N[C@H](CC(N)=O)C(=O)N[C@@H](C(=O)O)[C@H](C)O` (stereo in doubt; 12), the Activity in assay [1] is below 0.1%; in assay [2], 0%.

Take `CSCC[C@@H](NC(=O)[C@@H](CC(C)C)NC(=O)[C@@H](Cc1c[nH]c2ccccc12)NC(=O)[C@@H](CCC(N)=O)NC(=O)[C@H](NC(=O)[C@@H](Cc1ccccc1)NC(=O)[C@@H](CC(=O)O)NC(=O)[C@@H](CCC(N)=O)NC(=O)[C@@H](C)NC(=O)[C@@H](CCCN=C(N)N)NC(=O)[C@@H](CCCN=C(N)N)NC(=O)[C@@H](CO)NC(=O)[C@@H](CC(=O)O)NC(=O)[C@@H](CC(C)C)NC(=O)[C@@H](Cc1ccc(O)cc1)NC(=O)[C@@H](CCCCN)NC(=O)[C@@H](CO)NC(=O)[C@@H](Cc1ccc(O)cc1)NC(=O)[C@@H](CCC(=O)O)NC(=O)[C@@H](CO)NC(=O)[C@H](NC(=O)[C@@H](Cc1ccc(O)cc1)NC(=O)[C@H](NC(=O)CNC(=O)[C@@H](CCC(N)=O)NC(=O)[C@H](N)CO)[C@H](C)O)[C@H](C)O)C(C)C)C(=O)N[C@H](CC(N)=O)C(=O)N[C@@H](C(N)=O)[C@H](C)O`: the Activity was 3.8% in assay [1] and 0% in assay [2].

In the case of `CSCC[C@@H](NC(=O)[C@@H](CC(C)C)NC(=O)[C@@H](Cc1c[nH]c2ccccc12)NC(=O)[C@@H](CCC(N)=O)NC(=O)[C@H](NC(=O)[C@@H](Cc1ccccc1)NC(=O)[C@@H](CC(=O)O)NC(=O)[C@@H](CCC(N)=O)NC(=O)[C@@H](C)NC(=O)[C@@H](CCCN=C(N)N)NC(=O)[C@@H](CCCN=C(N)N)NC(=O)[C@@H](CO)NC(=O)[C@@H](CC(=O)O)NC(=O)[C@@H](CC(C)C)NC(=O)[C@@H](Cc1ccc(O)cc1)NC(=O)[C@@H](CCCCN)NC(=O)[C@@H](CO)NC(=O)[C@@H](Cc1ccc(O)cc1)NC(=O)[C@@H](CCC(=O)O)NC(=O)[C@@H](CO)NC(=O)[C@H](NC(=O)[C@@H](Cc1ccccc1)NC(=O)[C@H](NC(=O)[C@@H](CCC(N)=O)NC(=O)[C@H](N)CO)[C@H](C)O)[C@H](C)O)C(C)C)C(=O)N[C@H](CC(N)=O)C(=O)N[C@@H](C(N)=O)[C@H](C)O`, the Activity in assay [1] was 3%; in assay [2], 6%.

In the case of `CSCC[C@@H](NC(=O)[C@@H](CC(C)C)NC(=O)[C@@H](Cc1c[nH]c2ccccc12)NC(=O)[C@@H](CCC(N)=O)NC(=O)[C@H](NC(=O)[C@@H](Cc1ccccc1)NC(=O)[C@@H](CC(=O)O)NC(=O)[C@@H](CCC(N)=O)NC(=O)[C@@H](C)NC(=O)[C@@H](CCCN=C(N)N)NC(=O)[C@@H](CCCN=C(N)N)NC(=O)[C@@H](CO)NC(=O)[C@@H](CC(=O)O)NC(=O)[C@@H](CC(C)C)NC(=O)[C@@H](Cc1ccc(O)cc1)NC(=O)[C@@H](CCCCN)NC(=O)[C@@H](CO)NC(=O)[C@@H](Cc1ccc(O)cc1)NC(=O)[C@@H](CCC(=O)O)NC(=O)[C@@H](CO)NC(=O)[C@H](NC(=O)[C@@H](Cc1c[nH]c2ccccc12)NC(=O)[C@H](NC(=O)CNC(=O)[C@@H](CCC(N)=O)NC(=O)[C@H](N)CO)[C@H](C)O)[C@H](C)O)C(C)C)C(=O)N[C@H](CC(N)=O)C(=O)N[C@@H](C(N)=O)[C@H](C)O`, the Activity was found to be 7.9% in assay [1] and 0% in assay [2].

Regarding `CSCC[C@@H](NC(=O)[C@@H](CC(C)C)NC(=O)[C@@H](Cc1c[nH]c2ccccc12)NC(=O)[C@@H](CCC(N)=O)NC(=O)[C@H](NC(=O)[C@@H](Cc1ccccc1)NC(=O)[C@@H](CC(=O)O)NC(=O)[C@@H](CCC(N)=O)NC(=O)[C@@H](C)NC(=O)[C@@H](CCCN=C(N)N)NC(=O)[C@@H](CCCN=C(N)N)NC(=O)[C@@H](CO)NC(=O)[C@@H](CC(=O)O)NC(=O)[C@@H](CC(C)C)NC(=O)[C@@H](Cc1ccc(O)cc1)NC(=O)[C@@H](CCCCN)NC(=O)[C@@H](CO)NC(=O)[C@@H](Cc1ccc(O)cc1)NC(=O)[C@@H](CCC(=O)O)NC(=O)[C@@H](CO)NC(=O)[C@H](NC(=O)[C@@H](CC(=O)O)NC(=O)[C@H](NC(=O)CNC(=O)[C@@H](CCC(N)=O)NC(=O)[C@H](N)CO)[C@H](C)O)[C@H](C)O)C(C)C)C(=O)N[C@H](CC(N)=O)C(=O)N[C@@H](C(N)=O)[C@H](C)O`, the Activity in assay [1] is below 0.1%; in assay [2] it was 0%.

Consider `CSCC[C@@H](NC(=O)[C@@H](CC(C)C)NC(=O)[C@@H](Cc1c[nH]c2ccccc12)NC(=O)[C@@H](CCC(N)=O)NC(=O)[C@H](NC(=O)[C@@H](Cc1ccccc1)NC(=O)[C@@H](CC(=O)O)NC(=O)[C@@H](CCC(N)=O)NC(=O)[C@@H](C)NC(=O)[C@@H](CCCN=C(N)N)NC(=O)[C@@H](CCCN=C(N)N)NC(=O)[C@@H](CO)NC(=O)[C@@H](CC(=O)O)NC(=O)[C@@H](CC(C)C)NC(=O)[C@@H](Cc1ccc(O)cc1)NC(=O)[C@@H](CCCCN)NC(=O)[C@@H](CO)NC(=O)[C@@H](Cc1ccc(O)cc1)NC(=O)[C@@H](CC(=O)O)NC(=O)[C@@H](CO)NC(=O)[C@H](NC(=O)[C@H](NC(=O)CNC(=O)[C@@H](CCC(N)=O)NC(=O)[C@H](N)CO)[C@H](C)O)[C@H](C)O)C(C)C)C(=O)N[C@H](CC(N)=O)C(=O)N[C@@H](C(=O)O)[C@H](C)O`, for which the Activity in assay [1] was 1%; in assay [2], 0%.

`CCCC[C@H](NC(=O)[C@H](NC(=O)CNC(=O)[C@@H](CCC(N)=O)NC(=O)[C@H](N)CO)[C@H](C)O)C(=O)N[C@@H](C(=O)N[C@H](CO)C(=O)N[C@H](CCC(=O)O)C(=O)N[C@H](Cc1ccc(O)cc1)C(=O)N[C@H](CO)C(=O)N[C@H](CCCCN)C(=O)N[C@H](Cc1ccc(O)cc1)C(=O)N[C@H](CC(C)C)C(=O)N[C@H](CC(=O)O)C(=O)N[C@H](CO)C(=O)N[C@H](CCCN=C(N)N)C(=O)N[C@H](CCCN=C(N)N)C(=O)N[C@H](C)C(=O)N[C@H](CCC(N)=O)C(=O)N[C@H](CC(=O)O)C(=O)N[C@H](Cc1ccccc1)C(=O)N[C@@H](C(=O)N[C@H](CCC(N)=O)C(=O)N[C@H](Cc1c[nH]c2ccccc12)C(=O)N[C@H](CC(C)C)C(=O)N[C@H](CCSC)C(=O)N[C@H](CC(N)=O)C(=O)N[C@@H](C(N)=O)[C@H](C)O)C(C)C)[C@H](C)O`: the figures for the Activity in assay [1] and in assay [2] were 3.1% and 12%, respectively.

The values are drawn from ChEMBL document CHEMBL1130110 (J Med Chem, 1997).
